Test [1] concerns the target WRN (BV08), human Werner helicase (Uniprot Q14191, amino acids 517-1235 with L1074F point mutation) (Homo sapiens (Human), UniProt Q14191, L1074F). Nature of the test: WRN (BV08) ADP-Glo assay. Format: biochemical. The settings on record: class symbols A-E, read-out: ADP-Glo_hWRN_IC50.
Test [2] relates to p21 induction in HCT116 cells. The test is described as follows: p21 induction in HCT116 cells. Format: cell-based. The settings on record: Homo sapiens, HCT-116, 24 h, HCT116 cells, 24 h compound incubation; read-out: P21_EC50. The procedure, abridged:
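EC50 from non-linear curve fit of p21 immunofluorescence (800 nm), with GAPDH (700 nm) read alongside. DMSO and a reference WRN inhibitor served as low and high controls. Cells (2,000/well) got 11 compound concentrations in duplicate for 24 h at 37 °C.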

SMILES strings stand for the structures. Where only a bound is given, the exact number is not on record here.

Sequence of WRN (BV08), human Werner helicase (Uniprot Q14191, amino acids 517-1235 with L1074F point mutation) (Q14191 other isoform, or with tags, fused parts or gaps L1074F (already in the parent)): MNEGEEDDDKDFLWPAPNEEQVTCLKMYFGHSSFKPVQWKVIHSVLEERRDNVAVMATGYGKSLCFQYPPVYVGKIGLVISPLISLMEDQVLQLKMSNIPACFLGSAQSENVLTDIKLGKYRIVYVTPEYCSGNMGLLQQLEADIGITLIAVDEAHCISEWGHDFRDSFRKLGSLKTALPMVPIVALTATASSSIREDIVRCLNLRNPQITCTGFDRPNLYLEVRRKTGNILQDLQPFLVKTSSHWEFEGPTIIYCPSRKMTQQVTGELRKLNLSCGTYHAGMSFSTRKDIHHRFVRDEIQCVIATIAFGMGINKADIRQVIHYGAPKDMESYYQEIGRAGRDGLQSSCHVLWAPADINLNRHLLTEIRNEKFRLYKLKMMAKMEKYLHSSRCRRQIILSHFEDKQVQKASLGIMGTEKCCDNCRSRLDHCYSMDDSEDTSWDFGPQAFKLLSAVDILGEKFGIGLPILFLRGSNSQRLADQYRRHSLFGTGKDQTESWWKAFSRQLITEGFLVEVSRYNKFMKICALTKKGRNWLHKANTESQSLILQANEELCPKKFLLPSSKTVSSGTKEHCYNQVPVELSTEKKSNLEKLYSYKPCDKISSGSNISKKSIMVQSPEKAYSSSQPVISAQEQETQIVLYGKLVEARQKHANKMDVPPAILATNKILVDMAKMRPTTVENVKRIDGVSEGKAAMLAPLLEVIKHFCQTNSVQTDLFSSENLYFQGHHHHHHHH

Take `CCc1c(N2CCN(C(=O)c3ncnc(C)c3O)[C@H]3CC[C@@H]32)c(=O)c2nc(N(C)[C@@H]3CC[C@H](O)C3)cnc2n1CC(=O)Nc1ccc(C(F)(F)F)cc1Cl` [I-300, N-[2-chloro-4-(trifluoromethyl)phenyl]-2-{6-ethyl-7-[(1S,6S)-5-(5-hydroxy-6-methylpyrimidine-4-carbonyl)-2,5-diazabicyclo[4.2.0]octan-2-yl]-2-{[(1R,3S)-3-hydroxycyclopentyl](methyl)amino}-8-oxo-5H,8H-pyrido[2,3-b]pyrazin-5-yl}acetamide]: the IC50 in test [1] was in the range of 5 to 50 nM. The EC50 in test [2] is less than 500 nM.

In the case of `CCc1c(N2CCN(C(=O)c3ncnc(C)c3O)[C@H]3CC[C@@H]32)c(=O)c2nc(N(C)[C@@H]3CC[C@@H](O)C3)cnc2n1CC(=O)Nc1ccc(C(F)(F)F)cc1Cl` [I-301, N-[2-chloro-4-(trifluoromethyl)phenyl]-2-{6-ethyl-7-[(1S,6S)-5-(5-hydroxy-6-methylpyrimidine-4-carbonyl)-2,5-diazabicyclo[4.2.0]octan-2-yl]-2-{[(1R,3R)-3-hydroxycyclopentyl](methyl)amino}-8-oxo-5H,8H-pyrido[2,3-b]pyrazin-5-yl}acetamide], in test [1], the IC50 lay within 5 to 50 nM. The EC50 in test [2] was less than 500 nM.

On to `CCc1c(N2CCN(C(=O)c3ncnc(C)c3O)[C@H]3CC[C@@H]32)c(=O)c2nc(N(C)[C@H]3CC[C@@H](O)C3)cnc2n1CC(=O)Nc1ccc(C(F)(F)F)cc1Cl` [I-302, N-[2-chloro-4-(trifluoromethyl)phenyl]-2-{6-ethyl-7-[(1S,6S)-5-(5-hydroxy-6-methylpyrimidine-4-carbonyl)-2,5-diazabicyclo[4.2.0]octan-2-yl]-2-{[(1S,3R)-3-hydroxycyclopentyl](methyl)amino}-8-oxo-5H,8H-pyrido[2,3-b]pyrazin-5-yl}acetamide], for which the IC50 in test [1] was 5 to 50 nM. Further, the EC50 in test [2] was less than 500 nM.
